According to patent US8586739B2, “Heterocyclic compounds and their uses” (Amgen Inc., priority 2007, dated 2013):

Tested on: human B cells
Assay: Human B cells proliferation stimulated by anti-IgM (3H thymidine)
Format: cell-based
Protocol: Human B Cells Proliferation stimulate by anti-IgM
Isolate PBMCs from Leukopac or from human fresh blood. Isolate human B cells by using Miltenyi protocol and B cell isolation kit II.—human B cells were Purified by using autoMACS® column.
Activation of Human B Cells
Use 96 well Flat bottom plate, plate 50000/well purified B cells in B cell proffer-ation medium (DMEM+5% FCS, 10 mM Hepes, 50 μM 2-mercaptoethanol); 150 μL medium contain 250 ng/mL CD40L-LZ recombinant protein (Amgen) and 2 μg/mL anti-Human IgM antibody (Jackson ImmunoReseach Lab.#109-006-129), mixed with 50 μL B cell medium containing PI3K inhibitors and incubate 72 h at 37° C. incubator. After 72 h, pulse labeling B cells with 0.5-1 uCi/well ^3H thymidine for overnight ˜18 h, and harvest cell using TOM harvester.

[1] = Homo sapiens, B-cell, 72 h, purified human B cells, anti-Human IgM + CD40L-LZ
[2] = Homo sapiens, B-cell, purified human B cells, anti-Human IgM + CD40L-LZ, 72 h

C[C@H](Nc1ncnc2[nH]cnc12)c1cc2cccc(Cl)c2nc1-c1ccccc1Cl [N-((1S)-1-(8-chloro-2-(2-chlorophenyl)-3-quinolinyl)ethyl)-9H-purin-6-amine]
IC50 [1]: 3.6 nM

CCc1ncccc1-c1nc2c(Cl)cccc2cc1[C@H](C)Nc1ncnc2[nH]cnc12 [N-((1S)-1-(8-chloro-2-(2-ethyl-3-pyridinyl)-3-quinolinyl)ethyl)-9H-purin-6-amine]
IC50 [1]: 3.31 nM

CCc1ncc(F)cc1-c1nc2c(Cl)cccc2cc1[C@H](C)Nc1ncnc2[nH]cnc12 [N-((1S)-1-(8-chloro-2-(2-ethyl-5-fluoro-3-pyridinyl)-3-quinolinyl)ethyl)-9H-purin-6-amine]
IC50 [1]: 3.84 nM

C[C@H](Nc1ncnc2[nH]cnc12)c1cc2cccc(Cl)c2nc1-c1ccccc1F [N-((1S)-1-(8-chloro-2-(2-fluorophenyl)-3-quinolinyl)ethyl)-9H-purin-6-amine]
IC50 [1]: 3.56 nM | IC50 [2]: 3.56 nM

COc1nc(-c2nc3c(Cl)cccc3cc2[C@H](C)Nc2ncnc3[nH]cnc23)cs1 [N-((1S)-1-(8-chloro-2-(2-methoxy-1,3-thiazol-4-yl)-3-quinolinyl)ethyl)-9H-purin-6-amine]
IC50 [1]: 17.5 nM

Cc1ncccc1-c1nc2c(Cl)cccc2cc1[C@H](C)Nc1ncnc2[nH]cnc12 [N-((1S)-1-(8-chloro-2-(2-methyl-3-pyridinyl)-3-quinolinyl)ethyl)-9H-purin-6-amine]
IC50 [1]: 4.34 nM

C[C@H](Nc1nc(F)nc2[nH]cnc12)c1cc2cccc(Cl)c2nc1-c1ccccn1 [N-((1S)-1-(8-chloro-2-(2-pyridinyl)-3-quinolinyl)ethyl)-2-fluoro-9H-purin-6-amine]
IC50 [1]: 14 nM

C[C@H](Nc1ncnc2[nH]cnc12)c1cc2cccc(Cl)c2nc1-c1ccccn1 [N-((1S)-1-(8-chloro-2-(2-pyridinyl)-3-quinolinyl)ethyl)-9H-purin-6-amine]
IC50 [1]: 3.24 nM

C[C@H](Nc1ncnc2[nH]cnc12)c1cc2cccc(Cl)c2nc1-c1ncccn1 [N-((1S)-1-(8-chloro-2-(2-pyrimidinyl)-3-quinolinyl)ethyl)-9H-purin-6-amine]
IC50 [1]: 90.4 nM

C[C@H](Nc1ncnc2[nH]cnc12)c1cc2cccc(Cl)c2nc1-c1cc(F)cc(F)c1 [N-((1S)-1-(8-chloro-2-(3,5-difluorophenyl)-3-quinolinyl)ethyl)-9H-purin-6-amine]
IC50 [1]: 5.04 nM | IC50 [2]: 5.04 nM

Cc1cc(C)n(-c2nc3c(Cl)cccc3cc2[C@H](C)Nc2ncnc3[nH]cnc23)n1 [N-((1S)-1-(8-chloro-2-(3,5-dimethyl-1H-pyrazol-1-yl)-3-quinolinyl)ethyl)-9H-purin-6-amine]
IC50 [1]: 2.63 nM

C[C@H](Nc1ncnc2[nH]cnc12)c1cc2cccc(Cl)c2nc1-c1cccc(S(C)(=O)=O)c1 [N-((1S)-1-(8-chloro-2-(3-(methylsulfonyl)phenyl)-3-quinolinyl)ethyl)-9H-purin-6-amine]
IC50 [1]: 55.8 nM

C[C@H](Nc1ncnc2[nH]cnc12)c1cc2cccc(Cl)c2nc1-n1ccc(C(F)(F)F)n1 [N-((1S)-1-(8-chloro-2-(3-(trifluoromethyl)-1H-pyrazol-1-yl)-3-quinolinyl)ethyl)-9H-purin-6-amine]
IC50 [1]: 449 nM

C[C@H](Nc1ncnc2[nH]cnc12)c1cc2cccc(Cl)c2nc1-c1cccc(Cl)c1 [N-((1S)-1-(8-chloro-2-(3-chlorophenyl)-3-quinolinyl)ethyl)-9H-purin-6-amine]
IC50 [1]: 5.52 nM

CCC[C@H](Nc1ncnc2[nH]cnc12)c1cc2cccc(Cl)c2nc1-c1cccc(F)c1 [N-((1S)-1-(8-chloro-2-(3-fluorophenyl)-3-quinolinyl)butyl)-9H-purin-6-amine]
IC50 [1]: 6.52 nM

C[C@H](Nc1ncnc2[nH]cnc12)c1cc2cccc(Cl)c2nc1-c1cccc(F)c1 [N-((1S)-1-(8-chloro-2-(3-fluorophenyl)-3-quinolinyl)ethyl)-9H-purin-6-amine]
IC50 [1]: 2.42 nM

CC[C@H](Nc1ncnc2[nH]cnc12)c1cc2cccc(Cl)c2nc1-c1cccc(F)c1 [N-((1S)-1-(8-chloro-2-(3-fluorophenyl)-3-quinolinyl)propyl)-9H-purin-6-amine]
IC50 [1]: 5.3 nM

Cc1cccnc1-c1nc2c(Cl)cccc2cc1[C@H](C)Nc1ncnc2[nH]cnc12 [N-((1S)-1-(8-chloro-2-(3-methyl-2-pyridinyl)-3-quinolinyl)ethyl)-9H-purin-6-amine]
IC50 [1]: 33.2 nM

C[C@H](Nc1ncnc2[nH]cnc12)c1cc2cccc(Cl)c2nc1-c1cccnn1 [N-((1S)-1-(8-chloro-2-(3-pyridazinyl)-3-quinolinyl)ethyl)-9H-purin-6-amine]
IC50 [1]: 18 nM

C[C@H](Nc1ncnc2[nH]cnc12)c1cc2cccc(Cl)c2nc1-c1cccnc1 [N-((1S)-1-(8-chloro-2-(3-pyridinyl)-3-quinolinyl)ethyl)-9H-purin-6-amine]
IC50 [1]: 3.44 nM

C[C@H](Nc1ncnc2[nH]cnc12)c1cc2cccc(Cl)c2nc1-c1ccc(F)cc1 [N-((1S)-1-(8-chloro-2-(4-fluorophenyl)-3-quinolinyl)ethyl)-9H-purin-6-amine]
IC50 [1]: 10.5 nM

CC(C)Cc1ncc(F)cc1-c1nc2c(Cl)cccc2cc1[C@H](C)Nc1ncnc2[nH]cnc12 [N-((1S)-1-(8-chloro-2-(5-fluoro-2-(2-methylpropyl)-3-pyridinyl)-3-quinolinyl)ethyl)-9H-purin-6-amine]
IC50 [1]: 15.5 nM

Cc1ncc(F)cc1-c1nc2c(Cl)cccc2cc1[C@H](C)Nc1ncnc2[nH]cnc12 [N-((1S)-1-(8-chloro-2-(5-fluoro-2-methyl-3-pyridinyl)-3-quinolinyl)ethyl)-9H-purin-6-amine]
IC50 [1]: 16.9 nM

C[C@H](Nc1ncnc2[nH]cnc12)c1cc2cccc(Cl)c2nc1-c1cncc(F)c1 [N-((1S)-1-(8-chloro-2-(5-fluoro-3-pyridinyl)-3-quinolinyl)ethyl)-9H-purin-6-amine]
IC50 [1]: 3.57 nM

C[C@H](Nc1ncnc2[nH]cnc12)c1cc2cccc(Cl)c2nc1-c1cccc(F)n1 [N-((1S)-1-(8-chloro-2-(6-fluoro-2-pyridinyl)-3-quinolinyl)ethyl)-9H-purin-6-amine]
IC50 [1]: 3.1 nM

Cc1cccc(-c2nc3c(Cl)cccc3cc2[C@H](C)Nc2ncnc3[nH]cnc23)n1 [N-((1S)-1-(8-chloro-2-(6-methyl-2-pyridinyl)-3-quinolinyl)ethyl)-9H-purin-6-amine]
IC50 [1]: 105 nM

C[C@H](Nc1ncnc2[nH]cnc12)c1cc2cccc(Cl)c2nc1Oc1ccccc1 [N-((1S)-1-(8-chloro-2-phenoxy-3-quinolinyl)ethyl)-9H-purin-6-amine]
IC50 [1]: 29.3 nM

C[C@H](Nc1ncnc2[nH]cnc12)c1cc2cccc(Cl)c2nc1-c1ccccc1 [N-((1S)-1-(8-chloro-2-phenyl-3-quinolinyl)ethyl)-9H-purin-6-amine]
IC50 [1]: 2.65 nM

C[C@H](Nc1ncnc2nc[nH]c12)c1cc2cccc(F)c2nc1-c1cccnc1 [N-((1S)-1-(8-fluoro-2-(3-pyridinyl)-3-quinolinyl)ethyl)-7H-purin-6-amine]
IC50 [1]: 15.4 nM

Clc1cccc2cc(CNc3ncnc4[nH]cnc34)c(-c3ccccc3-c3ccccc3)nc12 [N-((2-(2-biphenylyl)-8-chloro-3-quinolinyl)methyl)-9H-purin-6-amine]
IC50 [1]: 165 nM

Fc1ccc2cc(CNc3ncnc4[nH]cnc34)c(-c3ccccc3Cl)nc2c1 [N-((2-(2-chlorophenyl)-7-fluoro-3-quinolinyl)methyl)-9H-purin-6-amine]
IC50 [1]: 88.7 nM

Fc1cccc2nc(CNc3ncnc4[nH]cnc34)c(-c3ccccc3Cl)nc12 [N-((3-(2-Chlorophenyl)-5-fluoroquinoxalin-2-yl)methyl)-9H-purin-6-amine]
IC50 [1]: 299 nM

Clc1ccccc1-c1nc2c(I)cccc2nc1CNc1ncnc2[nH]cnc12 [N-((3-(2-Chlorophenyl)-5-iodoquinoxalin-2-yl)methyl)-9H-purin-6-amine]
IC50 [1]: 88.4 nM

Fc1cccc2nc(-c3ccccc3Cl)c(CNc3ncnc4[nH]cnc34)nc12 [N-((3-(2-Chlorophenyl)-8-fluoroquinoxalin-2-yl)methyl)-9H-purin-6-amine]
IC50 [1]: 177 nM

Cc1cccc2nc(CNc3ncnc4ccsc34)c(-c3ccccc3Cl)nc12 [N-((3-(2-chlorophenyl)-5-methyl-2-quinoxalinyl)methyl)thieno[3,2-d]pyrimidin-4-amine]
IC50 [1]: 194 nM

CS(=O)(=O)c1cccc2nc(-c3ccccc3Cl)c(CNc3ncnc4[nH]cnc34)nc12 [N-((3-(2-chlorophenyl)-8-(methylsulfonyl)-2-quinoxalinyl)methyl)-9H-purin-6-amine]
IC50 [1]: 2410 nM

Fc1ccc(Cl)c(-c2nc3c(Cl)cccc3nc2CNc2ncnc3[nH]cnc23)c1 [N-((5-Chloro-3-(2-chloro-5-fluorophenyl)quinoxalin-2-yl)methyl)-9H-purin-6-amine]
IC50 [1]: 165 nM

Fc1cccc(-c2nc3c(Cl)cccc3nc2CNc2ncnc3[nH]cnc23)c1 [N-((5-Chloro-3-(3-fluorophenyl)quinoxalin-2-yl)methyl)-9H-purin-6-amine]
IC50 [1]: 71.9 nM

FC(F)(F)c1ccccc1-c1nc2c(Cl)cccc2nc1CNc1ncnc2[nH]cnc12 [N-((5-chloro-3-(2-(trifluoromethyl)phenyl)-2-quinoxalinyl)methyl)-9H-purin-6-amine]
IC50 [1]: 41.8 nM

Clc1ccccc1-c1nc2c(Cl)cccc2nc1CNc1ncnc2[nH]cnc12 [N-((5-chloro-3-(2-chlorophenyl)-2-quinoxalinyl)methyl)-9H-purin-6-amine]
IC50 [1]: 82.5 nM

Fc1cccc(-c2cc3c(Cl)cccc3nc2CNc2ncnc3[nH]cnc23)c1 [N-((5-chloro-3-(3-fluorophenyl)-2-quinolinyl)methyl)-9H-purin-6-amine]
IC50 [1]: 130 nM

Fc1cccc(-c2nc3c(Br)cccc3cc2CNc2ncnc3[nH]cnc23)c1 [N-((8-Bromo-2-(3-fluorophenyl)quinolin-3-yl)methyl)-9H-purin-6-amine]
IC50 [1]: 68.8 nM
